# Measured values reported in PubChem BioAssay (NCI).
#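 Compound exposure: 48 hours, 5 concentrations, 96-well plates. GI50: concentration for 50% inhibition of growth. The concentration for full growth arrest is given as TGI.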
# What was measured:
# Test in all cases: DTP human tumour cell line panel, 48 h
# IGROV1 ovarian = tested on: IGROV1 ovarian
# KM20L2 colon = tested on: KM20L2 colon
# LXFL 529 NSCLC = tested on: LXFL 529 NSCLC
# OVCAR-4 ovarian = tested on: OVCAR-4 ovarian
# RPMI-8226 leukemia = tested on: RPMI-8226 leukemia
# SK-MEL-2 melanoma = tested on: SK-MEL-2 melanoma
# DU-145 prostate = tested on: DU-145 prostate
# EKVX NSCLC = tested on: EKVX NSCLC
# NCI/ADR-RES ovarian = tested on: NCI/ADR-RES ovarian
# OVCAR-3 ovarian = tested on: OVCAR-3 ovarian
Compound,TGI (IGROV1 ovarian) [µM],TGI (KM20L2 colon) [µM],TGI (LXFL 529 NSCLC) [µM],TGI (OVCAR-4 ovarian) [µM],TGI (RPMI-8226 leukemia) [µM],TGI (SK-MEL-2 melanoma) [µM],GI50 (DU-145 prostate) [µM],TGI (DU-145 prostate) [µM],GI50 (EKVX NSCLC) [µM],TGI (EKVX NSCLC) [µM],GI50 (IGROV1 ovarian) [µM],GI50 (NCI/ADR-RES ovarian) [µM],TGI (NCI/ADR-RES ovarian) [µM],GI50 (OVCAR-3 ovarian) [µM],TGI (OVCAR-3 ovarian) [µM],GI50 (OVCAR-4 ovarian) [µM],GI50 (RPMI-8226 leukemia) [µM],GI50 (SK-MEL-2 melanoma) [µM]
Cc1cc([N+](=O)[O-])ccc1NC(=O)C(=O)C(C(=O)c1ccccc1-c1ccccc1)C1OC(=O)c2ccccc21 (centres undefined),67.8,15.5,30,77.9,98,29.2,–,–,–,–,–,–,–,–,–,–,–,–
O=C(c1ccco1)c1nc2cc(C(F)(F)F)ccc2nc1C(F)(F)F,> 100,–,–,> 100,> 100,> 100,> 100,> 100,> 100,> 100,> 100,> 100,> 100,> 100,> 100,56.4,49.8,> 100
COc1ccc(N=Cc2c(O)ccc3c2oc2cc(Cl)c(O)c(Cl)c23)cc1,43.3,–,–,> 100,30.2,22.9,18.9,45.9,10.7,38,14.7,12.2,50.7,6.91,22.3,16.3,4.83,5.92
COc1c(C)cc(O)cc1C=O,> 100,–,> 100,> 100,> 100,> 100,–,–,–,> 100,–,–,–,–,> 100,–,–,–
O=C1c2[nH]cc(CNC3CN4CCC3CC4)c2C(=O)c2c1c(O)c1ccccc1c2O (centres undefined),3.84,–,–,55.7,4.15,18.6,0.714,7.21,16.1,33.1,1.33,2.08,6.4,1.01,2.22,16.3,1.46,4.02
CC(=O)Nc1ccccc1-c1nc2ccccc2nc1C,> 100,> 100,> 100,> 100,> 100,> 100,–,–,–,> 100,–,–,–,–,> 100,–,–,–
COC(=O)C1=Cc2cc(OC)c(OC)c(OC)c2[C@H](c2cc(OC)c(OC)c(OC)c2)C1C(=O)OC (some centres undefined),> 100,> 100,> 100,> 100,> 100,–,–,–,–,> 100,–,–,–,–,> 100,–,–,–
CC[C@H](NC(=O)[C@H]1CCCCN1C)C(=O)N(C)[C@H](C[C@@H](OC(C)=O)c1nc(C(=O)N[C@@H](Cc2ccccc2)C[C@H](C)C(=O)O)cs1)C(C)C,> 14.3,–,–,> 14.3,> 14.3,> 14.3,0.00425,> 4.64,0.01,> 14.3,0.0145,0.0785,> 14.3,< 0.00143,0.0286,0.0326,0.00531,0.00145
CC(C)(C)N1CCC1CN (centres undefined),> 100,–,–,> 100,> 100,> 100,> 100,> 100,> 100,> 100,> 100,> 100,> 100,> 100,> 100,> 100,> 100,> 100
N#Cc1c(NC(=O)NCc2ccccc2)sc2c1CCCC2,> 100,–,–,> 100,> 100,> 100,0.801,> 33.5,2,> 100,0.749,0.424,> 34.1,0.344,1.87,1.78,0.538,5.08
C[C@]12CC[C@@H]3c4cc(OC(F)F)c(O)cc4CC[C@H]3[C@@H]1CC[C@@H]2OS(N)(=O)=O,> 100,–,–,97.6,46.9,55.8,1.55,> 100,1.51,> 100,0.687,0.484,25.3,0.365,16.6,15.8,0.568,0.88
CSc1ccc(-c2ccccc(=O)c2O)cc1,> 100,–,–,67.3,26.9,31.4,0.849,> 100,0.28,3.96,0.427,0.278,2.12,0.373,29.7,0.271,0.428,0.966
COc1ccc(OC(C)=O)c2c1CCC=CC2=O,34.4,–,21.5,36.1,3.96,33.7,–,–,–,–,–,–,–,–,29.3,–,–,–
Cc1c(O)c2ccccc2oc1=O,> 100,–,–,> 100,> 100,> 100,–,> 100,–,> 100,–,–,> 100,–,> 100,–,–,–
CC1(C)N=C(N)N=C(N)N1c1ccc(CCCCc2ccccc2)c(Cl)c1,2.34,–,–,9.66,11.6,12.4,0.0577,14,0.294,25.1,< 0.0185,6.74,> 100,0.0541,1.76,0.0755,0.127,0.0394
COC1OC(CO)C(O)C(OC(C)=O)C1NC(=O)N(CCCl)N=O (centres undefined),> 100,> 100,> 100,> 100,–,8.75,–,–,–,> 100,–,–,–,–,> 100,–,–,–
Cc1cc(Nc2ccc(OCc3ccccc3)cc2)nc2cc(O)ccc12,26.3,–,–,22.6,8.33,30.1,11.9,25.4,12.3,27.2,10.6,5.93,19.8,8.79,22.5,8.74,2.5,11.9
